# Data from patent US7572809B2, “Isoquinoline aminopyrazole derivatives” (Hoffmann-La Roche Inc., priority 2005, dated 2009).
# Target: T1, Aurora A kinase (Homo sapiens, UniProt O14965)
# T1 sequence (O14965 1-403): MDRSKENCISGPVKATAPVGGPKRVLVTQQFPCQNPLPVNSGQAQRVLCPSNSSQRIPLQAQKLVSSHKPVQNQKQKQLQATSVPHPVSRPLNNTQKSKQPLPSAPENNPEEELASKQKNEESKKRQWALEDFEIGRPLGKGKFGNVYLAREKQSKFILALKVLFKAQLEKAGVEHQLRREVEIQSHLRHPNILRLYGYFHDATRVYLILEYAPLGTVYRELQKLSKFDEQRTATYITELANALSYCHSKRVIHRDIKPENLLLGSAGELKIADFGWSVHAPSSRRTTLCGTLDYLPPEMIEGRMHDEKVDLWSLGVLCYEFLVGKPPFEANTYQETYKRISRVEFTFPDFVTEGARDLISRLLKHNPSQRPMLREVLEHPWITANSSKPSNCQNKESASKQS
# Experiment: IC50 determination for inhibitors of Aurora A kinase (ELISA, GST-Histone H3 substrate)
# Type: biochemical
# Conditions: mutant Aurora A kinase, 30 μM ATP, 40 minutes; read-out: IC50 Aurora A kinase inhibition
# Method: IC50 Determination for Inhibitors of Aurora A Kinase
# Aurora A is a Serine Threonine Kinase Involved in Spindle Assembly and Chromosome Segregation.
# The assay is a typically ELISA-type assay where substrate (GST-Histone H3) is coupled to the assay-plate and is phosphorylated by the kinase. Phosphorylation is detected by a mouse anti-Phosphopeptid mAb and an HRP-labeled anti-mouse pAb. The assay is validated for IC50-determination.
# Kinase activities were measured by Enzyme-Linked Immunosorbent Assay (ELISA): Maxisorp 384-well plates (Nunc) were coated with recombinant fusion protein comprising residues 1-15 of HistoneH3 fused to the N-terminus of Glutathione-S-Transferase. Plates were then blocked with a solution of 1 mg/mL I-block (Tropix cat# T2015—highly purified form of casein) in phosphate-buffered saline. Kinase reactions were carried out in the wells of the ELISA plate by combining an appropriate amount of mutant Aurora A kinase with test compound and 30 μM ATP. The reaction buffer was […] Kinase Buffer (Cell Signaling cat # 9802) supplemented with 1 μg/mL I-block. Reactions were stopped after 40 minutes by addition of 25 mM EDTA (ethylenediaminetetraacetic acid). After washing, substrate phosphorylation was detected by addition of anti-phospho-Histone H3 (Ser 10) 6G3 mAb (Cell Signaling cat #9706) and sheep anti-mouse pAb-HRP (Amersham cat# NA931V), followed by colorimetric development with TMB (3,3′,5,5′-tetramethylbenzidine from Kirkegaard & Perry Laboratories). After readout of the absorbance, IC50 values were calculated using a non-linear curve fit (XLfit® software (ID Business Solution Ltd., Guilford, Surrey, UK)).
row,IC50 [µM],SMILES
1,0.066,"Cc1ccc(Oc2nc(Nc3cc(C)[nH]n3)cc3ccccc23)cc1 [Example 14, (5-Methyl-1H-pyrazol-3-yl)-(1-p-tolyloxy-isoquinolin-3-yl)-amine]"
2,0.33,"Cc1cc(Nc2cc3ccccc3c(-c3ccncc3)n2)n[nH]1 [Example 162, (5-Methyl-1H-pyrazol-3-yl)-(1-pyridin-4-yl-isoquinolin-3-yl)-amine]"
3,0.39,"COc1ccc2c(-c3ccc4ccccc4c3)nc(Nc3cc(C)[nH]n3)cc2c1 [Example 183, (5-Methyl-1H-pyrazol-3-yl)-(1-naphthalen-2-yl-6-methoxy-isoquinolin-3-yl)-amine]"
4,2.97,"COc1ccc2c(-c3ccc4ccccc4c3)nc(Nc3cc[nH]n3)cc2c1 [Example 265, (6-Methoxy-1-naphthalen-2-yl-isoquinolin-3-yl)-(1H-pyrazol-3-yl)-amine]"
5,0.043,"COc1ccc2c(Nc3ccc(Br)cc3)nc(Nc3cc(C)[nH]n3)cc2c1 [Example 275, N^1-(4-Bromo-phenyl)-6-methoxy-N^3-(5-methyl-1H-pyrazol-3-yl)-isoquinoline-1,3-diamine]"
6,0.21,"COc1ccc2c(Sc3cccc(F)c3)nc(Nc3cc(C)[nH]n3)cc2c1 [Example 311, [1-(3-Fluoro-phenylsulfanyl)-6-methoxy-isoquinolin-3-yl]-(5-methyl-1H-pyrazol-3-yl)-amine]"

# Further lines, the compound ahead of its results:
row,SMILES,IC50 [µM]
1,"Cc1cc(Nc2cc3ccccc3c(Oc3ccccc3Cl)n2)n[nH]1 [Example 23, [1-(2-Chloro-phenoxy)-isoquinolin-3-yl]-(5-methyl-1H-pyrazol-3-yl)-amine]",1.66
2,"CC(=O)Nc1ccc(Oc2nc(Nc3cc(C)[nH]n3)cc3ccccc23)cc1 [Example 59, N-{4-[-3-(5-Methyl-1H-pyrazol-3-ylamino)-isoquinolin-1-yloxy]-phenyl}-acetamide]",0.039
3,"CC(C)COc1nc(Nc2cc[nH]n2)cc2ccccc12 [Example 99, (1-Isobutoxy-isoquinolin-3-yl)-(1H-pyrazol-3-yl)-amine]",1.46
4,"CCOCCOCCOc1nc(Nc2cc[nH]n2)cc2ccccc12 [Example 110, {1-[2-(2-Ethoxy-ethoxy)-ethoxy]-isoquinolin-3-yl}-(1H-pyrazol-3-yl)-amine]",0.822
5,"COc1cc2cc(Nc3cc(C)[nH]n3)nc(OC3CCCC3)c2cc1OC [Example 117, (1-Cyclopentyloxy-6,7-dimethoxy-isoquinolin-3-yl)-(5-methyl-1H-pyrazol-3-yl)-amine]",0.021
6,"COc1ccc2c(-c3cnn(C)c3)nc(Nc3cc[nH]n3)cc2c1 [Example 135, [6-Methoxy-1-(1-methyl-1H-pyrazol-4-yl)-isoquinolin-3-yl]-(1H-pyrazol-3-yl)-amine]",0.653
7,"COc1cccc2c(-c3cccc(C#N)c3)nc(Nc3cc(C)[nH]n3)cc12 [Example 201, 3-[3-(5-Methyl-1H-pyrazol-3-ylamino)-5-methoxy-isoquinolin-1-yl]-benzonitrile]",0.047
8,"c1ccc2c(-c3ccsc3)nc(Nc3cc[nH]n3)cc2c1 [Example 241, (1H-Pyrazol-3-yl)-(1-thiophen-3-yl-isoquinolin-3-yl)-amine]",0.946
9,"c1ccc2c(-c3ccncc3)nc(Nc3cc[nH]n3)cc2c1 [Example 248, (1H-Pyrazol-3-yl)-(1-pyridin-4-yl-isoquinolin-3-yl)-amine]",3.44
10,"COc1ccc(Nc2nc(Nc3cc[nH]n3)cc3ccccc23)cc1OC [Example 284, N^1-(3,4-Dimethoxy-phenyl)-N^3-(1H-pyrazol-3-yl)-isoquinoline-1,3-diamine]",0.259
11,"Cc1cc(Nc2cc3ccccc3c(Nc3cccnc3)n2)n[nH]1 [Example 292, N^3-(5-methyl-1H-pyrazol-3-yl)-N^1-pyridin-3-yl-isoquinoline-1,3-diamine]",0.241
12,"Cc1cc(Nc2cc3cc(OCCN4CCOCC4)ccc3c(-c3ccccc3)n2)n[nH]1 [Example 299, (5-Methyl-1H-pyrazol-3-yl)-[6-(2-morpholin-4-yl-ethoxy)-1-phenyl-isoquinolin-3-yl]-amine]",0.297
13,"Cc1cc(Nc2cc3ccccc3c(Sc3ccccc3)n2)n[nH]1 [Example 305, (5-Methyl-1H-pyrazol-3-yl)-(1-phenylsulfanyl-isoquinolin-3-yl)-amine]",0.497

# Tested on: HCT 116 cells
# Experiment: Viability assay in HCT 116 cells (CellTiter-Glo)
# Type: cell-based
# Conditions: 120 h; HCT 116 human colon carcinoma cells, 5 days incubation
# Method: Viability Assay in HCT 116 Cells
# A viability assay was performed using the CellTiter-Glo® Luminescent Cell Viability Assay (see Promega Corporation's Technical Bulletin No. 288, pp. 1-11 [revised February, 2004] which is hereby incorporated by reference in its entirety). This assay is a homogeneous method of determining the number of viable cells in culture based on quantitation of the ATP present, an indicator of metabolically active cells. The assay is designed for use with multiwell formats, making it ideal for automated high-throughput screening (HTS), cell proliferation and cytotoxicity assays. The homogeneous assay procedure involves adding a single reagent (containing luciferase, luciferan substrate, and buffer) directly to cells cultured in serum-supplemented medium. Cell washing, removal of medium and multiple pipetting steps are not required. The system detects as few as 15 cells/well in a 384-well format in 10 minutes after adding reagent and mixing.
# The homogeneous “add-mix-measure” format results in cell lysis and generation of a luminescent signal proportional to the amount of ATP present. The amount of ATP is directly proportional to the number of cells present in culture. The above-referenced assay generates a “glow-type” luminescent signal, produced by the luciferase reaction, which has a half-life generally greater than five hours, depending on cell type and medium used. The extended half-life eliminates the need to use reagent injectors and provides flexibility for continuous or batch mode processing of multiple plates. The unique homogeneous format avoids errors that may be introduced by other ATP measurement methods that require multiple steps.
# HCT 116 cells (human colon carcinoma, ATCC-No. CCl-247) were cultivated in RPMI 1640 medium with GlutaMAX™ I (cell culture media that contains L-Alanyl-L-Glutamine [a stabilized form/source of L-Glutamine] from Invitrogen, Cat-No. 61870-010), 5% Fetal Calf Serum (FCS, Sigma Cat-No. F4135 (FBS)); 100 Units/ml penicillin/100 μg/ml streptomycin (=Pen/Strep from Invitrogen Cat. No. 15140). For the assay the cells were seeded in 384 well plates, 1000 cells per well, in the same medium. The next day the test compounds were added in various concentrations ranging from 30 μM to 0.0015 μM (10 concentrations, 1:3 diluted). After 5 days the viability assay was performed according to the instructions of the manufacturer. In brief: the cell-plate was equilibrated to room temperature for approximately 30 minutes and then the CellTiter-Glo™ reagent (which contains luciferase, luciferan substrate, and buffer) was added. The contents were carefully mixed for 15 minutes to induce cell lysis. After 45 minutes the luminescent signal was measured in Victor 2, (scanning multiwell spectrophotometer, Wallac).
# 1st. Day: • Medium: RPMI 1640 with GlutaMAX™ I (Invitrogen, Cat-No. 61870), 5% FCS (Sigma Cat.-No. F4135), Pen/Strep (Invitrogen, Cat No. 15140). • HCT116 (ATCC-No. CCl-247): 1000 cells in 60 μl per well of 384 well plate (Greiner 781098, μClear-plate white) • After seeding incubate plates 24 h at 37° C., 5% CO2 2nd. Day: Induction (Treatment with Compounds, 10 Concentrations):
# In order to achieve a final concentration of 30 μM as highest concentration 3.5 μl of 10 mM compound stock solution were added directly to 163 μl media. Then step e) of the dilution procedure described below, was followed.
# In order to achieve the second highest to the lowest concentrations, a serial dilution with dilution steps of 1:3 was followed according to the procedure (a-e) as described here below: a) for the second highest concentration add 10 μl of 10 mM stock solution of compound to 20 μl dimethylsulfoxide (DMSO) b) dilute 8×1:3 (always 10 μl to 20 μl DMSO) in this DMSO dilution row (results in 9 wells with concentrations from 3333.3 μM to 0.51 μM) c) dilute each concentration 1:47.6 (3.5 μl compound dilution to 163 μl media) […]
row,SMILES,IC50 [µM]
1,"COc1cc2cc(Nc3cc(C)[nH]n3)nc(OC3CCCC3)c2cc1OC [Example 117, (1-Cyclopentyloxy-6,7-dimethoxy-isoquinolin-3-yl)-(5-methyl-1H-pyrazol-3-yl)-amine]",0.666
2,"COc1ccc2c(-c3ccc4ccccc4c3)nc(Nc3cc(C)[nH]n3)cc2c1 [Example 183, (5-Methyl-1H-pyrazol-3-yl)-(1-naphthalen-2-yl-6-methoxy-isoquinolin-3-yl)-amine]",4.01
3,"COc1ccc2c(Nc3ccc(Br)cc3)nc(Nc3cc(C)[nH]n3)cc2c1 [Example 275, N^1-(4-Bromo-phenyl)-6-methoxy-N^3-(5-methyl-1H-pyrazol-3-yl)-isoquinoline-1,3-diamine]",0.995
